The experiment concerns MOG-induced experimental allergic encephalomyelitis (EAE) murine model. Nature of the experiment: MOG-induced experimental allergic encephalomyelitis (EAE) murine model, clinical score 0-15. It counts as in vivo, Mouse/C57BL/6J. The settings on record: dimethyl fumarate in therapeutic dose, 49 mg/kg PO bi-daily, Days 0-35 (Group 11). The text has this: FIG. 1: Combination of MabionCD20DP and teriflunomide. MabionCD20DP and teriflunomide have been administered to an experimental allergic encephalomyelitis (EAE) mouse model. The MOG (myelin oligodendrocyte glycoprotein)-induced EAE murine model consists of a sensitization period, induced by the single SC injection of MOG emulsified in CFA (complete Freund's adjuvant) on Day 0, followed by IP supplemental immunostimulation with PT carried out once at the time of EAE induction and once again 48 hours later.
FIG. 2: Combination of MabionCD20DP and dimethyl fumarate. MabionCD20DP and dimethyl fumarate have been administered to an experimental allergic encephalomyelitis (EAE) mouse model. […]
Throughout the 36-day study, general clinical examinations were performed and recorded if any unexpected abnormalities are observed.
Body weight loss can be the first sign of disease initiation, while a sudden marked weight gain tends to accompany remission of EAE symptoms. Therefore, determination of individual body weights of animals was made shortly before EAE induction on Study Day 0 and was monitored on a daily basis throughout the 35-day observation period. […]

Counter-ions that a name gives are not always drawn.

Results on 1 molecule are retold here after patent publication US20220213210A1, “COMBINATION THERAPY OF MULTIPLE SCLEROSIS COMPRISING A CD20 LIGAND” (MABION SA, priority 2017, published 2022).

On to `COC(=O)/C=C/C(=O)OC` [dimethyl fumarate], for which the “disease parameters (EAE), FIG. 2” value is given as “reduction of the disease parameters”.
